Experimental data taken from the NIST ThermoML archive (doi:10.1021/je034062r).

Assay: xn = mol fraction of the nth substance listed
Conditions: for surface tension liquid-gas: Pendant drop shape; for mass density: Liquid

CC(C)=O [acetone] + Cc1ccccc1
Conditions | mass density, 308.15 K [kg/m3] | mass density, 313.15 K [kg/m3] | mass density, 318.15 K [kg/m3] | mass density, 323.15 K [kg/m3] | mass density, 328.15 K [kg/m3] | mass density, 333.15 K [kg/m3] | surface tension liquid-gas, 307.86 K [mN/m] | surface tension liquid-gas, 317.86 K [mN/m] | surface tension liquid-gas, 327.88 K [mN/m]
x2 = 0 | 775.4 | 769.6 | 762.5 | 756.2 | 749.3 | 742.3 | – | 20.33 | 19.01
x2 = 0.1 | 787.7 | 782 | 776.2 | 770.2 | 764 | 757.3 | – | 20.9 | 19.74
x2 = 0.2002 | – | 790.4 | 784.6 | 778.9 | 773.2 | 767.5 | – | 21.44 | 20.32
x2 = 0.3002 | 805.5 | 800.1 | 794.6 | 789.1 | 783.5 | 778.1 | – | 22.18 | 21.07
x2 = 0.3997 | 815.1 | 809.7 | 804.2 | 798.6 | 792.9 | 787.3 | – | 22.67 | 21.8
x2 = 0.4973 | 822.1 | 816.9 | 811.6 | 806.3 | 801 | 795.6 | – | 23.25 | 22.2
x2 = 0.6011 | 829.7 | 824.7 | 819.5 | 814.4 | 809.2 | 803.9 | – | 24.11 | 22.97
x2 = 0.7004 | 836.4 | 831.4 | 826.4 | – | 816.3 | 811.2 | – | 24.4 | 23.56
x2 = 0.7998 | 842.4 | 837.6 | 832.7 | 827.7 | 822.8 | 817.8 | – | 24.99 | 23.83
x2 = 0.8982 | 847.9 | 843.2 | 838.4 | 833.6 | 828.7 | 823.8 | 26.24 | 25.2 | 24.14
